In US9309222B2, “Phenyl linked quinolinyl modulators of RORγt” (Janssen Pharmaceutica NV, priority 2012, dated 2016):
pIC50, pKd: −log10 of the molar value. Structures can show the parent of a compound that is named as a salt.

Assays:
[1] = molecular target: T1, human RORγt ligand binding domain (RORγt LBD) (Homo sapiens, UniProt P51449); assay: RORγt ThermoFluor assay (thermal shift, ligand binding affinity); conditions: estimated from concentration response of thermal shift
T1 construct: His-tag (N); TurboTEV protease cleavage site (ENLYFQG) (N); made in house; host or cells: E. coli (pHIS1, modified pET vector)
T1 sequence (P51449 with tags, fused parts or gaps): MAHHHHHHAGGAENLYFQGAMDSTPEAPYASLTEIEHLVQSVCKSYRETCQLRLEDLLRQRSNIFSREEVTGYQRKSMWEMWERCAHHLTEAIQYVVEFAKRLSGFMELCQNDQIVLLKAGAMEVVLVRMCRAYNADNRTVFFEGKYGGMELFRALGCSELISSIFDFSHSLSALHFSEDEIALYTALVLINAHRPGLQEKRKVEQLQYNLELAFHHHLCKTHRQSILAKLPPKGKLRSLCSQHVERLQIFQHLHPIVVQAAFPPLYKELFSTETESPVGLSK
Outline: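 Thermal shift of 0.065 mg/mL RORγt with 60 μM 1,8-ANS in 100 mM Hepes pH 7.0, 10 mM NaCl, 2.5 mM GSH, 0.002% Tween-20. Compounds in 1:2 series from 10 mM DMSO stock. Dye fluorescence (500 nm emission) tracked versus temperature; ΔTm used to derive KD.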

human RORγt LBD = molecular target: T2, human RORγt LBD (Homo sapiens, UniProt P51449); assay: RORγt reporter assay (GAL4-RORγt LBD luciferase in HEK293T cells); format: cell-based; conditions: for inhibition at 6 µM: HEK-293T, read-out: RORγt reporter Assay, % inhibition @ 6 μM, HEK293T cells, 6 μM compound
T2 construct: expressed in transfected cells
T2 sequence (P51449 258-518): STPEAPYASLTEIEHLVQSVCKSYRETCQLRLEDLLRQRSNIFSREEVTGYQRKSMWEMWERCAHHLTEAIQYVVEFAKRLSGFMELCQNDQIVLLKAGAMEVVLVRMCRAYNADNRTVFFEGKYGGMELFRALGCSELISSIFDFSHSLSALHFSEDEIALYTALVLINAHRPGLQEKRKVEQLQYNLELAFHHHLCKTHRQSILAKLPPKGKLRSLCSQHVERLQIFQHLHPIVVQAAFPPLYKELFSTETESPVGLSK
Outline: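 Read-out is the firefly-to-renilla luciferase ratio versus compound concentration, after 24 h compound exposure of cells in phenol-red-free DMEM/5% lipid-reduced FCS. Cells were HEK293T bulk-transfected with a GAL4-responsive firefly reporter (pGL4.31) and GAL4 DBD–wild-type human RORγt LBD fusion (pBIND, renilla as transfection/viability control).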

[2] = tested on: IL-17 production by CD4 T cells; assay: Human Th17 assay (IL-17 production by CD4 T cells under Th17 differentiation conditions); format: cell-based; conditions: Homo sapiens, CD4+ T, 72 h, IL-17 in supernatant after 3 days
Outline: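 Primary CD4+ T cells from healthy-donor PBMC, preincubated 1 h with titrated compound (0.2% DMSO), then activated with anti-CD3/CD28 beads plus anti-IL4, anti-IFNγ, IL1β, IL23, IL6, TGFβ and IL2.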

A pKd [1] of 6.85, a pIC50 (human RORγt LBD; HEK293T cells, 24 hours compound treatment) of 6.49 and an inhibition at 6 µM (human RORγt LBD) of 85% were found for `OC(c1ccc(C(F)(F)F)cc1)(c1cccnc1)c1ccc2nc(Cl)c(-c3ccccc3)c(Cl)c2c1` (stereo not shown) [Example 171, (2,4-Dichloro-3-phenylquinolin-6-yl)(pyridin-3-yl)(4-(trifluoromethyl)phenyl)methanol•TFA] in this work. The pIC50 [2] was 6.52.

A pKd [1] of 8.82, an inhibition at 6 µM (human RORγt LBD) of 94% and a pIC50 [2] of 8.15 were found for `Cn1nncc1C(O)(c1ccc2nc(C(F)(F)F)c(-c3ccccc3)c(C(F)(F)F)c2c1)c1cnnn1C` [Example 182, Bis(1-methyl-1H-1,2,3-triazol-5-yl)(3-phenyl-2,4-bis(trifluoromethyl)quinolin-6-yl)methanol] in this work.

With `Cn1cncc1C(O)(c1ccc(Cl)cc1)c1ccc2nc(Cl)c(-c3cccc(Cl)c3)c(Cl)c2c1` (stereo not shown) [Example 187, (4-Chlorophenyl)(2,4-dichloro-3-(3-chlorophenyl)quinolin-6-yl)(1-methyl-1H-imidazol-5-yl)methanol] the pKd [1] was 7.00, the inhibition at 6 µM (human RORγt LBD) was 73% and the pIC50 [2] was < 5.22.
